# Structures can show the parent of a compound that is named as a salt.
# Key:
# Assay type in all cases: in vivo
# [1] = system: cutaneous reflex after stimulation (guinea-pig back); test: Local anesthetic activity, intradermal infiltration in the back of guinea-pig (Bulbring and Wayda); conditions: drug concentration inhibiting 50% of the occurence of the cutaneous reflex, 95% c.l. in parentheses
# [2] = system: mouse; test: in vivo; conditions: for LD50: mouse, i.v., administered as hydrochloride, observed for 24 hrs, 1440 min; for Therapeutic Index LD50/ED50: ratio of LD50 (mouse, i.v.) to ED50 (guinea pig local infiltration)
# Description: (§1) Toxicity study in mouse has been performed by intravenous administration.
# [3] = in vivo; conditions: in vivo, iv
# Description: as §1
SMILES,LOCAL ANESTHETIC ACTIVITY ED50 (c.l. 95%) [1],LD50 [2],Therapeutic Index LD50/ED50 [2],also measured
"CC(COc1ccccc1)N[C@@H](CO)[C@@H](O)c1ccc(S(C)(=O)=O)cc1 (relative stereo) [Z. 1402, (1S,2S)-1-(4-methylsulfonylphenyl)-2-(1-methyl-2-phenoxyethylamino)-1,3-propanediol]",0.075 (0.05-0.1) mM,0.30 mmols/kg/iv,4,–
"CC(COc1ccccc1)N[C@@H](CO)[C@@H](O)c1ccc(S(C)(=O)=O)cc1 (relative stereo) [Z. 1403, (1S,2S)-1-(4-methylsulfonylphenyl)-2-(1-methyl-2-phenoxyethylamino)-1,3-propanediol]",0.049 mM,0.80 mmols/kg/iv,16,–
"CCN(CC)CC(=O)Nc1c(C)cccc1C [Lidocaine, reference compound]",–,–,–,LOCAL […] ED50 (c.l. 95%) [1]: 0.49 (0.34-0.71) mM
"CCN(CC)CCOC(=O)c1ccc(N)cc1 [Procaine, reference compound]",2.3 (1.7-3.1) mM,–,–,–
"CS(=O)(=O)c1ccc([C@@H](O)[C@@H](CO)NCCC(c2ccccc2)c2ccccc2)cc1 [Z. 1395, (1R,2R)-1-(4-methylsulfonylphenyl)-2-(3,3-diphenylpropylamino)-1,3-propanediol maleate acid]",0.73 (0.57-0.94) mM,–,–,–
CS(=O)(=O)c1ccc([C@H](O)[C@H](CO)NCCC(c2ccccc2)c2ccccc2)cc1 [Z. 1396],0.36 (0.21-0.60) mM,–,–,"selectivity ratio ([3]; ratio of LD50 (mouse, i.v.) to ED50 (guinea pig local infiltration), read-out: Therapeutic Index LD50/ED50): 0.5; LD50 at 24 h ([3]; mouse, administered as hydrochloride, observed for 24 hrs): 160 µmol/kg"
